Our source for the IC50 and Ki values is ChEMBL document CHEMBL1909046, “DrugMatrix in vitro pharmacology data”.

As usually defined, the IC50 is the point on the concentration scale where inhibition reaches its midpoint. One may read the Ki as a measure of affinity in units of concentration, obtained from inhibition or displacement.

For data set [1], the target named is T1, Alpha-2C adrenergic receptor (Homo sapiens, UniProt P18825).
T1 sequence (P18825 whole entry): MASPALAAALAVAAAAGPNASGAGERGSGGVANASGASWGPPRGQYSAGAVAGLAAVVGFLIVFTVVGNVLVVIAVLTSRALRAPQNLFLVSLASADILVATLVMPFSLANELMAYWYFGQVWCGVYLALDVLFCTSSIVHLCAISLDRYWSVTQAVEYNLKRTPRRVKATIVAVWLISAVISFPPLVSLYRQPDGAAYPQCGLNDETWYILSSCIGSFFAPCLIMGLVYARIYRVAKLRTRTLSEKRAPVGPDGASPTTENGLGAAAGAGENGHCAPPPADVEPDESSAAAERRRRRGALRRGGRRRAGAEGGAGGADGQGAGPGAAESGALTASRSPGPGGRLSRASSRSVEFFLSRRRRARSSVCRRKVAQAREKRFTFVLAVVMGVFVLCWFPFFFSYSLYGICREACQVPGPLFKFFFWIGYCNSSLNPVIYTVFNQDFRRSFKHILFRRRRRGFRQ
Nature of the data set: DRUGMATRIX: Adrenergic Alpha-2C radioligand binding (ligand: [3H] MK-912). The format is cell membranes, Sf9, Membrane.

The target of data set [2] is Beta-2 adrenergic receptor (Homo sapiens, UniProt P07550). The data set can be described thus: DRUGMATRIX: Adrenergic beta2 radioligand binding (ligand: [3H] CGP-12177). The format is cell membranes, Membrane. Particulars: cho; Not Active = under 50% inhibition at 10 µM.
In data set [3] the target is Sodium-dependent noradrenaline transporter (Homo sapiens, UniProt P23975). The data set can be described thus: DRUGMATRIX: Norepinephrine Transporter radioligand binding (ligand: [125I] RTI-55). Type of data set: cell membranes, MDCK, Membrane. Particulars: mdck; Not Active = under 50% inhibition at 10 µM.
Data set [4] in a line: DRUGMATRIX: Atrial Natriuretic Factor (ANF) radioligand binding (ligand: [125I] ANF (rat)). Type of data set: cell membranes, Cavia porcellus, Dunkin-Hartley, Adrenal gland, Membrane. As to conditions: Not Active = under 50% inhibition at 10 µM.
The nature of data set [5]: DRUGMATRIX: Calcium Channel Type L, Dihydropyridine radioligand binding (ligand: [3H] Nitrendipine). Type of data set: cell membranes, Rattus norvegicus, Wistar, Cerebral cortex, Membrane. As to conditions: Not Active = under 50% inhibition at 10 µM.
For the next data set, the target named is Cannabinoid receptor 1 (Homo sapiens, UniProt P21554). The format is cell membranes, Membrane. As to conditions: chem-1. Note: in other assays of this panel Not Active means under 50% inhibition at 10 µM.
The next data set concerns the target T2, Endothelin-1 receptor (Homo sapiens, UniProt P25101). Note: in other assays of this panel Not Active means under 50% inhibition at 10 µM.
T2 sequence (P25101 whole entry): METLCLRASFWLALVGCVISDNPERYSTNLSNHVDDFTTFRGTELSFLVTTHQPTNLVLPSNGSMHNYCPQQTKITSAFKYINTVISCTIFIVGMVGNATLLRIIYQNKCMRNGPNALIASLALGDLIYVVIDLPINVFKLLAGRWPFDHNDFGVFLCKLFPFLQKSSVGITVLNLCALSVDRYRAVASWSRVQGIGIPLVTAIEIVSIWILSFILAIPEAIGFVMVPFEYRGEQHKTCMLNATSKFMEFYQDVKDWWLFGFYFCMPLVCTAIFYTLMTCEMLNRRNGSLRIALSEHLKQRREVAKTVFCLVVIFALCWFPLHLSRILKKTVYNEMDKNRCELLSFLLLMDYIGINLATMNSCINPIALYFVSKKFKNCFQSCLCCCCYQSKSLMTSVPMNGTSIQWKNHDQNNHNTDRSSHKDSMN
Type of data set: cell membranes, Membrane. Particulars: cho-k1.

A short description of data set [6]: DRUGMATRIX: GABAA, Flunitrazepam, Central radioligand binding (ligand: [3H] Flunitrazepam). Type of data set: cell membranes, Rattus norvegicus, Wistar, Brain, Membrane. Particulars: Not Active = under 50% inhibition at 10 µM.
For data set [7], the target named is T3, Muscarinic acetylcholine receptor M2 (Homo sapiens, UniProt P08172). Note: in other assays of this panel Not Active means under 50% inhibition at 10 µM.
T3 sequence (P08172 whole entry): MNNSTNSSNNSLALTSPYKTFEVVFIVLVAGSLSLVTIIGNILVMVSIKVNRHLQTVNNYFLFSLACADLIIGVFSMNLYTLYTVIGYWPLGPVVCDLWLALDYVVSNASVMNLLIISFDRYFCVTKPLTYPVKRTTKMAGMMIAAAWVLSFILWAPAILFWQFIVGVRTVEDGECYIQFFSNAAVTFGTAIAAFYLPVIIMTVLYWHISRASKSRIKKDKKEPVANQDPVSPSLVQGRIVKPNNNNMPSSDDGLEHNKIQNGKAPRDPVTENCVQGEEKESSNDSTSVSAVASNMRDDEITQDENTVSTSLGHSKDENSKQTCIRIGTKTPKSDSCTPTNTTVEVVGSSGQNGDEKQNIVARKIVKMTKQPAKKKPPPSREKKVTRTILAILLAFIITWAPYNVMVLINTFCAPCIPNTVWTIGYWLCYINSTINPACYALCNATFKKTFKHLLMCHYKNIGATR
Type of data set: cell membranes, CHO-K1, Membrane. As to conditions: cho-k1.

Data set [8] is described as follows: DRUGMATRIX: Phosphodiesterase PDE3 enzyme inhibition (substrate: [3H]cAMP + cAMP). Type of data set: tissue-based, Homo sapiens. Particulars: platelet, Not Active = under 50% inhibition at 10 µM.
Data set [9] deals with Protein phosphatase 3 catalytic subunit alpha (Homo sapiens, UniProt Q08209). Also noted: species or system Escherichia coli.
Data set [10] concerns the target T4, 5-hydroxytryptamine receptor 1A (Rattus norvegicus, UniProt P19327). Note: in other assays of this panel Not Active means under 50% inhibition at 10 µM.
T4 sequence (P19327 whole entry): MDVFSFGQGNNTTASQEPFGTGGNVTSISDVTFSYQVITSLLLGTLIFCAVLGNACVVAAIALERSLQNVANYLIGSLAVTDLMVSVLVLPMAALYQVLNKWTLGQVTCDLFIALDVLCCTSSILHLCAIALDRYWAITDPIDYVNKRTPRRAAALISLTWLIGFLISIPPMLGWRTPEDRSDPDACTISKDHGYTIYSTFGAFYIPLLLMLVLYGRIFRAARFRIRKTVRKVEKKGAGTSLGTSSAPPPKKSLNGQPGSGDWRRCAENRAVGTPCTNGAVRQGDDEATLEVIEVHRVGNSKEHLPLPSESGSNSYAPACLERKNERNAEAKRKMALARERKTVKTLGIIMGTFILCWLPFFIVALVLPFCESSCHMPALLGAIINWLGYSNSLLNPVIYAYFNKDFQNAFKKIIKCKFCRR
The format is cell membranes, CHO-K1, Membrane.

Another data set deals with Cytochrome P450 2C9 (Homo sapiens, UniProt P11712). As to conditions: bti-tn-5b1-4.
Chain of Cytochrome P450 2C9 (P11712 whole entry): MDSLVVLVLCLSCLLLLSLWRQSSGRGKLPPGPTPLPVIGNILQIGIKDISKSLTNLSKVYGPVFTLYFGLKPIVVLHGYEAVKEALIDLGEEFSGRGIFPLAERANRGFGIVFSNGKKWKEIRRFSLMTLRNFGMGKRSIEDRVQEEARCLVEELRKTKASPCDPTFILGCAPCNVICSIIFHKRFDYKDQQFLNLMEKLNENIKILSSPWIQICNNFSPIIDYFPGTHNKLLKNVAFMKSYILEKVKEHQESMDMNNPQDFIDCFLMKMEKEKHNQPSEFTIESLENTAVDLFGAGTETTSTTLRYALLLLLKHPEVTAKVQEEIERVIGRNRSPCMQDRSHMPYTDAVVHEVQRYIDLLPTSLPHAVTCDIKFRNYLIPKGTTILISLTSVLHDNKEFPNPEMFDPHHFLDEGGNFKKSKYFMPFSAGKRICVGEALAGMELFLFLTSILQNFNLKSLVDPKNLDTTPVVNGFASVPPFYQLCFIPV

Chain of Cannabinoid receptor 1 (P21554 whole entry): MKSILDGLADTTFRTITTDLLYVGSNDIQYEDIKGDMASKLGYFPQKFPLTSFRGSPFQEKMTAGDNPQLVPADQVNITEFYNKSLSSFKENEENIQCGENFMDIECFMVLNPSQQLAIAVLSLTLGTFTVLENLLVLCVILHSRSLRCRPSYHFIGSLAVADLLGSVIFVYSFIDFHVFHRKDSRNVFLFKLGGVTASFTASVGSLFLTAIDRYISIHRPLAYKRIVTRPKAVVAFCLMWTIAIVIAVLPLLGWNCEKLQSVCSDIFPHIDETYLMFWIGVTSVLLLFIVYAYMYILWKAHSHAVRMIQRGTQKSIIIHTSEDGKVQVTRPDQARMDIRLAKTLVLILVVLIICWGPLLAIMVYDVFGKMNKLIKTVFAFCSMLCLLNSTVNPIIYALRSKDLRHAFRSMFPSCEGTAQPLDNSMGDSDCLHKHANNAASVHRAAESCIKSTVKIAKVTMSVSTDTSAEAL
Chain of Sodium-dependent noradrenaline transporter (P23975 whole entry): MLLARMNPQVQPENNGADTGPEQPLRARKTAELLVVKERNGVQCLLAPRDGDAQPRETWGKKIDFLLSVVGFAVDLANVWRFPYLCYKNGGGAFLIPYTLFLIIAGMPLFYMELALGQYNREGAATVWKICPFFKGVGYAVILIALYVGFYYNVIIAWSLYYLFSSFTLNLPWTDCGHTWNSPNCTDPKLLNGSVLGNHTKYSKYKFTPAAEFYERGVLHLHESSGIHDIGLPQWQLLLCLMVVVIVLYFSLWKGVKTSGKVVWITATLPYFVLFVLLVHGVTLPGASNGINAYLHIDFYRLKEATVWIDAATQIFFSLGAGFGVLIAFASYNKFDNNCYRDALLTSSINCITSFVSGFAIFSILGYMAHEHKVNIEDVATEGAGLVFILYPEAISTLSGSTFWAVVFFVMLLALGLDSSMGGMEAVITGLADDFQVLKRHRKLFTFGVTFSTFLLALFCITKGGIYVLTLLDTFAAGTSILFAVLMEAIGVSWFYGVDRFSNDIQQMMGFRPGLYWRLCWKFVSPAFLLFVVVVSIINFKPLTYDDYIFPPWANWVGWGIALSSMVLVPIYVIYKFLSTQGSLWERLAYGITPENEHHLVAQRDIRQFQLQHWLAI

For the compound `CCCC[C@@H](CC)COC(=O)c1ccccc1C(=O)OC[C@@H](CC)CCCC` [BIS(2-ETHYLHEXYL)PHTHALATE], the IC50 entry (in data set [1] (sf9); in data set [2]; in [3]; in data set [4]; in [5]; on Cannabinoid receptor 1) was “Not Active” throughout. Also, the IC50 entry (against Endothelin-1 receptor; in data set [6]; in data set [7]; in data set [8]; in data set [9]; in [10] (cho-k1)) was “Not Active” in each case. Also, the IC50 entry on Cytochrome P450 2C9 was “Not Active”. For the same compound, the Ki entry (in data set [4]; in data set [5]; in data set [6]; in [8]; at Cytochrome P450 2C9) was “Not Active” each time.

In the case of `N#C[C@H](O[C@@H]1O[C@H](CO[C@@H]2O[C@H](CO)[C@@H](O)[C@H](O)[C@H]2O)[C@@H](O)[C@H](O)[C@H]1O)c1ccccc1` [AMYGDALIN], the IC50 entry (in data set [1] (sf9); in data set [2]; in data set [3]; in [4]; in data set [5]; on Cannabinoid receptor 1) was “Not Active” in each case. Also, the IC50 result (at Endothelin-1 receptor; in [6]; in [7]; in [8]; in [9]; in data set [10] (cho-k1)) was “Not Active” each time. Besides, on Cytochrome P450 2C9, the IC50 entry was “Not Active”. The Ki result (in [4]; in [5]; in [6]; in data set [8]; at Cytochrome P450 2C9) was “Not Active” throughout.

As to CISPLATIN, the IC50 result (in [1] (sf9); in data set [2]; in [3]; in data set [4]; in data set [5]; against Cannabinoid receptor 1) was “Not Active” each time. The IC50 entry against Endothelin-1 receptor is “Not Active”; in data set [6], “Not Active”; in [7] it was “Not Active”; in [8] (read-out: IC50) it was 46300 nM; in data set [9] it was “Not Active”; in [10] (cho-k1), “Not Active”. In addition, the IC50 result on Cytochrome P450 2C9 is given as “Not Active”. In addition, the inhibition constant Ki result (in data set [1] (sf9); in data set [2]; in data set [3]; in data set [4]; in data set [5]; on Cannabinoid receptor 1) was “Not Active” throughout. The Ki result (on Endothelin-1 receptor; in [6]; in data set [7]; in data set [9]; in data set [10] (cho-k1); on Cytochrome P450 2C9) was “Not Active” each time.

As for `C=C1[C@@H]2CCC3[C@@](CC[C@@H]4[C@H](C(=O)O)C[C@@H](O[C@@H]5O[C@H](CO)[C@@H](OS(=O)(=O)[O-])[C@H](OS(=O)(=O)[O-])[C@H]5OC(=O)CC(C)C)C[C@@]34C)(C2)[C@@H]1O.[K+].[K+]` (stereo partly drawn) [ATRACTYLOSIDE], the IC50 entry (in data set [1] (sf9); in data set [2]; in data set [3]; in [4]; in data set [5]; at Cannabinoid receptor 1) was “Not Active” throughout. The IC50 result (on Endothelin-1 receptor; in data set [6]; in data set [7]; in data set [8]; in data set [9]; in data set [10] (cho-k1)) was “Not Active” in each case. Moreover, the IC50 result at Cytochrome P450 2C9 is “Not Active”. The Ki result (in data set [4]; in data set [5]; in [6]; in data set [8]; at Cytochrome P450 2C9) was “Not Active” each time.

For `CN1C[C@H](C(=O)N[C@]2(C)O[C@@]3(O)[C@@H]4CCCN4C(=O)[C@H](Cc4ccccc4)N3C2=O)C=C2c3cccc4[nH]cc(c34)C[C@H]21` [ERGOTAMINE], the IC50 was 12 nM in data set [1] (read-out: IC50); “Not Active” in [3]; “Not Active” in data set [4]; “Not Active” in data set [5]; “Not Active” against Cannabinoid receptor 1; “Not Active” against Endothelin-1 receptor. In addition, the half-inhibitory concentration (IC50) result in [6] is “Not Active”; in data set [7], “Not Active”; in data set [8], “Not Active”; in data set [9], “Not Active”; in data set [10] (read-out: IC50), 0.774 nM; against Cytochrome P450 2C9 it was “Not Active”. Further, the Ki in data set [1] (read-out: Ki) is 1.81 nM; in data set [4], “Not Active”; in data set [5] it was “Not Active”; in data set [6], “Not Active”; in data set [8] it was “Not Active”; in [10] (read-out: Ki), 0.443 nM. Besides, at Cytochrome P450 2C9, the Ki entry is “Not Active”.
